Experimental data from patent publication US10953015B2, “Use of adenosine receptor signaling to regulate P-gp function” (CORNELL UNIVERSITY, priority 2016, dated 2021).

What was measured:
P-gp [1] = assay: Epirubicin accumulation and P-gp staining in MCF7 cells (fluorescence microscopy); type: cell-based, human; conditions: 1 μM
Procedure: MCF7 cells (human breast cancer cell line) were cultured in 24 well plates until they reached confluency. FIGS. 17A-17C are images of western blots of cells treated with vehicle control (i.e., DMSO) (“D”) or 1 μM of the broad spectrum AR agonist NECA (“N”) (FIG. 17A), 1 μM of the A2A AR agonist Lexiscan® (“L”) (FIG. 17B), or 1 μM of the A2B AR agonist BAY60 (“B”) (FIG. 17C), respectively for 24, 48, 72 hours. Cells were lysed with lysis buffer and expression levels of P-gp, MMP9, or VEGF analyzed by western blot. GAPDH was used as loading a control. FIG. 17D is a graph of experimental results showing that Lexiscan® down-regulates P-gp expression in MCF7 breast cancer cells. MCF7 breast cancer cells were treated with Lex (0.25 μM) concomitant with Rhodamine 123 (“Rho123”). […] Students T test, P<0.001. […] FIG. 17E is a fluorescence microscopy image showing MCF7 breast cancer cells grown on coverslips and treated with vehicle (DMSO, control), or A2 AR agonists, Lexiscan® (1 μM) or A1193 (1 μM) for 15 minutes in the presence of epirubicin. Cells were stained with an antibody to P-gp and mounted with DAPI. FIG. 17F is a graph of the fluorescent intensity quantified from FIG. 17E by measuring the mean fluorescent intensity (“MFI”) of epirubicin (pink) that is present in cell nuclei. ***=P<0.0001.
To further assess the modulation of A2A AR agonists on P-gp expression in MCF7 cells, applicants evaluated the accumulation of the P-gp substrate epirubicin in MCF7 cells. MCF7 cells were treated with DMSO (control), 1 μM Lexiscan®, or 1 μM of the A2A AR agonist A1193. […] In this case, the down-regulation of P-gp expression is equivalent to down-regulation of its function (Kim et al., “A2A Adenosine Receptor Modulates Drug Efflux Transporter P-Glycoprotein at the Blood-Brain Barrier,” J Clin Invest. 126(5):1717-33 (2016), which is hereby incorporated by reference in its entirety).

P-gp [2] = target: T1, P-gp (Homo sapiens, UniProt P08183); assay: Rho123 uptake assay in primary human brain endothelial cells (HBMVEC); type: cell-based; conditions: agonist 1 μM, Rho123 2.5 μM
T1 construct: in human primary brain endothelial cells, HBMVEC, high P-gp expression was observed; host or cells: HBMVEC (primary human brain endothelial cells)
Procedure: Human brain endothelial cells and primary brain endothelial cells were plated onto 48-well plates until 100% confluence was reached, and media were replaced with fresh media containing Rho123 (2.5 μM) with different concentrations of Lexiscan®, NECA, or PSC833. Reaction was halted by adding 250 μl of ice-cold PBS. Plate was washed with 250 μl of ice-cold PBS 3 times and lysed with lysis buffer. Each sample was analyzed using Synergy Fluometer (Biotek), with excitation at 488 nm and emission at 523 nm. Concentration of Rho123 was analyzed using standard curve created by serial dilution of Rho123. Final concentration of Rho123 was normalized using protein concentration of lysate measured using Bradford assay (Bio-Rad). For microscopic analysis of Rho123 uptake, cells were cultured on coverslip and Rho123 was treated with or without Lexiscan® or NECA with DMSO as control. Reaction was terminated by adding ice-cold PBS and washed with ice-cold PBS 3 times. Cells were fixed with PFA and costained with anti-human P-gp. Cells were visualized with a Zeiss fluorescent microscope and captured with axiovision software. FIG. 4G is a schematic illustration of the Rho123 uptake assay.

[3] = cited from earlier work

T1 sequence (P08183 whole entry): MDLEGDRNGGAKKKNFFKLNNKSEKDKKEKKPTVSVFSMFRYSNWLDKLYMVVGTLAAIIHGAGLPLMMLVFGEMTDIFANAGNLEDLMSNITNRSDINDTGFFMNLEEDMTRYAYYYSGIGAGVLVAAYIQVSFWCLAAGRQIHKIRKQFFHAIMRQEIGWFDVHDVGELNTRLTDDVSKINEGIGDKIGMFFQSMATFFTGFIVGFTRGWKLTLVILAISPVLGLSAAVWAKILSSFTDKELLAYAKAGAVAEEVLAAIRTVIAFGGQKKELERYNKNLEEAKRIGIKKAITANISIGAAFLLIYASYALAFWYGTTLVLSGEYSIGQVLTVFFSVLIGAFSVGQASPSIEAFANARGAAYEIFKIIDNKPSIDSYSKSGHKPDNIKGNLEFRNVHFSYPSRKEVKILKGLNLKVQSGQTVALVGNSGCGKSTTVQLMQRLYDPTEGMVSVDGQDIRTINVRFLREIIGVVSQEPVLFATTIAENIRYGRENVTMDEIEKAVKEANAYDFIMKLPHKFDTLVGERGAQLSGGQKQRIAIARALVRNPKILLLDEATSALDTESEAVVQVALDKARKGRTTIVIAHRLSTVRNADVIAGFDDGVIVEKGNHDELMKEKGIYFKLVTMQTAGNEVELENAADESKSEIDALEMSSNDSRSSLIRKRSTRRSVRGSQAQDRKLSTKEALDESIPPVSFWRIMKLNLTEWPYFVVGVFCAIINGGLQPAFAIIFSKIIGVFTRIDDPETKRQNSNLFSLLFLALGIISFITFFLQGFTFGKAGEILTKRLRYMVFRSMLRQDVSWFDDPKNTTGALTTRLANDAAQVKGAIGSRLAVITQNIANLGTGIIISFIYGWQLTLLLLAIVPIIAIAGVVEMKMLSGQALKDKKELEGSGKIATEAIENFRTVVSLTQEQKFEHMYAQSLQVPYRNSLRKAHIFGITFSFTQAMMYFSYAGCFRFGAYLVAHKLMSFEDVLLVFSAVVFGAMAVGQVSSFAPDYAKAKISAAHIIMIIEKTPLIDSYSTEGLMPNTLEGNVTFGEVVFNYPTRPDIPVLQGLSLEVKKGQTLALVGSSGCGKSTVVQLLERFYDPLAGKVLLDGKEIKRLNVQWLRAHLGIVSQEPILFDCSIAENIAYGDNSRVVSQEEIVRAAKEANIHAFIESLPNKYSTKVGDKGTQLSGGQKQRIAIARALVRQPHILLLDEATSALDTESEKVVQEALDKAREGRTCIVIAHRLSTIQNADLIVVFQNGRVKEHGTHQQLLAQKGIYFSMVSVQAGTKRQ

| SMILES | P-gp expression (antibody staining) (P-gp [1]; 15 minutes) | Epirubicin accumulation (MFI in cell nuclei) (P-gp [1]; 15 minutes in the presence of epirubicin) | Rho123 uptake / P-gp function (P-gp [2]) | half-life [3] |
| --- | --- | --- | --- | --- |
| CNC(=O)c1cnn(-c2nc(N)c3ncn([C@@H]4O[C@H](CO)[C@@H](O)[C@H]4O)c3n2)c1 [Lexiscan®, 1-[6-amino-9-[(2R,3R,4S,5R)-3,4-dihydroxy-5-(hydroxymethyl)oxolan-2-yl]purin-2-yl]-N-methylpyrazole-4-carboxamide] | down-regulate P-gp expression | retained more epirubicin than those treated with control | – | – |
| CCNC(=O)[C@H]1O[C@@H](n2cnc3c(N)ncnc32)[C@H](O)[C@@H]1O [NECA, (2S,3S,4R,5R)-5-(6-aminopurin-9-yl)-N-ethyl-3,4-dihydroxyoxolane-2-carboxamide] | – | – | showed a trend in P-gp suppression, but it did not reach statistical significance | 5 h |
